As usually defined, the IC50 is the concentration needed to halve the response being measured. Lower therefore signals greater potency in that assay.

One experiment deals with human citrated plasma. The experiment in a line: aPTT (activated partial thromboplastin time) prolongation. The following applies: concentration at which the aPTT time was double that of the control, 37° C. Here is the method: The inhibiting effect of the two substances on blood clotting was measured by determining the prolongation of aPTT (activated partial thromboplastin time) as follows:
Plasma, from citrated human blood
PTT reagent, Boehringer Mannheim (524298)
Calcium solution (0.025 mol/L), Behring Werke, Marburg (ORH 056/57)
Diethyl barbiturate acetate buffer, Behring Werke, Marburg (ORWH 60/61)
The aPTT was determined using a Biomatic—B 10 coagulometer made by Messrs Desaga (Wiesloch). The test substance was placed in the test tubes prescribed by the manufacturer with 0.1 ml of human citrated plasma and 0.1 ml of PTT reagent. The preparations were incubated for three minutes at 37° C. The clotting reaction was started by the addition of 0.1 ml of calcium solution. The time taken for the plasma to clot was measured by the apparatus as the calcium solution was added. Analogous test preparations to which 0.1 ml of diethyl barbiturate acetate buffer had been added were used as controls. According to the definition of EC200, the substance concentration at which the aPTT time was double that of the control was determined using a dosage-activity curve.

Experiment [1] deals with T1, human fibrinogen receptor (glycoprotein IIb/IIIa) (Homo sapiens, UniProt P05106+P08514).
T1 construct: endogenous in cells; host or cells: human thrombocytes in platelet-rich plasma from donor blood
The experiment in a line: Inhibition of binding of 3H-BIBU 52 to human thrombocytes. The conditions noted are these: 3H-BIBU 52 5 nM, human thrombocytes in plasma, ambient temperature, 20 minutes. Here is the method:
The inhibiting effect on the human fibrinogen receptor (glycoprotein IIb/IIIa) was investigated as follows:
Inhibition of Binding of ^3H-BIBU 52 to Human Thrombocytes:
A suspension of human thrombocytes was incubated with ^3H-BIBU 52 [=(3S,5S)-5-[(4′-amidino-4-biphenylyl)oxymethyl]-3-[(carboxy)methyl]-2-pyrrolidinone[3-^3H-4-biphenylyl]], which replaces the ligand ^125I-fibrinogen known from the literature (cf. DE-A-4 214 245), and various concentrations of the substance being tested. The free and bound ligands were separated by centrifugation and quantitatively determined by scintillation counting. The inhibition of the ^3H-BIBU 52 binding by the test substance was determined from the measurements obtained. To do this, donor blood was taken from an anticubital vein and anticoagulated with trisodium citrate (final concentration: 13 mM). The blood was centrifuged for ten minutes at 170× g and the supernatant platelet-rich plasma (PRP) was removed. The remaining blood was sharply centrifuged once more to obtain plasma. The PRP was diluted 1:10 with autologous plasma. […] 100 μl thereof were assayed in order to quantify the free ligand. […] The residual plasma still remaining in the pellet was determined from the ^14C content while the bound ligand was determined from the ^3H measurement. […]

T1 sequence (P08514 32-887 limits assumed): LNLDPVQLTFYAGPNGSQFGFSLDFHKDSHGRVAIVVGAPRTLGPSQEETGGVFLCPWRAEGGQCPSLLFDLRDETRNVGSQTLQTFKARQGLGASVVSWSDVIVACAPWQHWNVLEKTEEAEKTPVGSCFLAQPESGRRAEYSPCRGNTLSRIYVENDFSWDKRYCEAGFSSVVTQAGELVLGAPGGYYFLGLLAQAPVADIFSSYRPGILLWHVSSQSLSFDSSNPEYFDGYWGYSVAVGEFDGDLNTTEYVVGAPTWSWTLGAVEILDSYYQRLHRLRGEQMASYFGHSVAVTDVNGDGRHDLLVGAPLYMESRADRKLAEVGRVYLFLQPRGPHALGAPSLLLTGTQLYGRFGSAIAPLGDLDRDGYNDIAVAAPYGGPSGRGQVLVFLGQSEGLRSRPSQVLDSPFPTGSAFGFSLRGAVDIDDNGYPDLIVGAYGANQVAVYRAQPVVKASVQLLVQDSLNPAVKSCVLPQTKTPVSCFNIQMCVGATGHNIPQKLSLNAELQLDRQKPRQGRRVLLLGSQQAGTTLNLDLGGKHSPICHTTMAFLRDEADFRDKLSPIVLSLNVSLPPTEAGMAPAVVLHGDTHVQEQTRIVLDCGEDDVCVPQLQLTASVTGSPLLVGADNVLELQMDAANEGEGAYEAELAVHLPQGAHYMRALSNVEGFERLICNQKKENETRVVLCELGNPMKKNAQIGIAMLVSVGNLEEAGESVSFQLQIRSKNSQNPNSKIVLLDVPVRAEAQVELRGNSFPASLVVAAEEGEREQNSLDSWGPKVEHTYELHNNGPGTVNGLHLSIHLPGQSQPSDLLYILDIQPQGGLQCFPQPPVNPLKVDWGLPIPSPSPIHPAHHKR
T1 sequence (P08514 891-1039 partner limits assumed): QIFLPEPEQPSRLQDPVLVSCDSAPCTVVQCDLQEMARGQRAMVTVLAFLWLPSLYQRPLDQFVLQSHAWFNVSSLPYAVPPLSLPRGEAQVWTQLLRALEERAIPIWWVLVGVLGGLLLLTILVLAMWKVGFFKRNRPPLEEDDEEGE
T1 sequence (P05106 27-788): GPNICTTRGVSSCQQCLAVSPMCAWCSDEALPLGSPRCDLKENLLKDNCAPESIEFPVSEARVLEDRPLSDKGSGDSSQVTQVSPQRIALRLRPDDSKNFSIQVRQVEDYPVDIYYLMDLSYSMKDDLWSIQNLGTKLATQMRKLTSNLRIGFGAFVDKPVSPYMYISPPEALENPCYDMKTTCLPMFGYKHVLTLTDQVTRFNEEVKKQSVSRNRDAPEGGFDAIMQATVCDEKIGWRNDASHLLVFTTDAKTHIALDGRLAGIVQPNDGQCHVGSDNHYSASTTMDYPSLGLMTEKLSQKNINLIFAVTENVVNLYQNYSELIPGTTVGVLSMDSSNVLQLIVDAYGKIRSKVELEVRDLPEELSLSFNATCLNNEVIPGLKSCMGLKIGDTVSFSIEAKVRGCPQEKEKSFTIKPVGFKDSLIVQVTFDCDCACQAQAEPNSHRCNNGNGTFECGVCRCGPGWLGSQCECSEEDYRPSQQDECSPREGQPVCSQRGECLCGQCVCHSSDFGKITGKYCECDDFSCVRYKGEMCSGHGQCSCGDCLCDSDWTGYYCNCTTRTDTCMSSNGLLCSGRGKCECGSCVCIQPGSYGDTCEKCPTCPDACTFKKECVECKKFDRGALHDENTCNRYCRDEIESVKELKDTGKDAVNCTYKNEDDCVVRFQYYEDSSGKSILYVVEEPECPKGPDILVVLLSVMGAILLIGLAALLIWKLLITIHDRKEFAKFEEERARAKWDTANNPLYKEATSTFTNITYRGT

`Cn1c(CNc2ccc(C(=N)N)cc2)nc2cc(N(CC(=O)O)S(=O)(=O)c3cccc4cccnc34)ccc21` [B, 1-methyl-2-[N-(4-amidinophenyl)-aminomethyl]-5-[N-(hydroxycarbonylmethyl)-quinoline-8-sulphonylamino]-benzimidazole]: in the experiment on human citrated plasma, the “aPTT (EC200)” value was 0.026 µmol/L. This compound returned an IC50 in experiment [1] of 49 nM.

Consider `Cn1c(COc2ccc(C(=N)N)cc2)nc2cc(N(CC(=O)O)S(=O)(=O)c3cccc4cccnc34)ccc21` [A, 1-methyl-2-[(4-amidinophenyl)-oxymethyl]-5-[N-(hydroxycarbonylmethyl)-quinoline-8-sulphonylamino]-benzimidazole], for which the “aPTT (EC200)” value in the experiment on human citrated plasma was determined as 0.013 µmol/L. Besides, in experiment [1], the half-inhibitory concentration (IC50) turned out to be 6 nM.

The values are drawn from patent publication US20020193404A1, “Use of bicyclic heterocycles for the treatment and prevention of arterial thrombotic disease” (priority 2001, published 2002).
